# Data as given in US11530222B2, “Substituted pyrrolopyrimidine and pyrazolopyrimidine as Bruton's tyrosine kinase (BTK) degraders” (ACCUTAR BIOTECHNOLOGY INC., priority 2021, dated 2022).
# Target: T1, BTK (Homo sapiens, UniProt Q06187)
# T1 construct: BTK Degradative Activity of Exemplary Compounds of the Present Disclosure in a RAMOS Cell Line; host or cells: RAMOS
# Experiment: BTK degradative activity in a RAMOS cell line (Western blot)
# Type: cell-based
# Details: 6 hours after administration, read-out: RAMOS BTK Degradation DC50
# Procedure: RAMOS (ATCC) cells were plated in 24-well plates at 8×10^5 cells/well in the RPMI growth medium containing 10% heat-inactivated FBS and 1× Penicillin Streptomycin, and then incubated at 37° C. overnight. The following day, the test compound was administered to the cells by using 1000× compound stock solution prepared in DMSO at various concentrations. After administration of the compound, the cells were then incubated at 37° C. for 6 hours.
# Upon completion, the cells were collected by centrifugation and lysed in Laemmli sample buffer (1×; VWR International). Proteins in cell lysate were separated by SDS-PAGE and transferred to Odyssey nitrocellulose membranes (Licor) with Iblot® dry blotting transfer system (ThermoFisher). Nonspecific binding was blocked by incubating membranes with Intercept Blocking Buffer (Licor) for 1 hour at room temperature with gentle shaking. The membranes were then incubated overnight at 4° C. with primary antibodies anti-BTK (Cell signaling, cat. #8547) and anti-GAPDH (Cell signaling, cat. #5179) diluted in Intercept Blocking Buffer containing 0.1% Tween 20. After washing 3 times with TBS-T, the membranes were incubated with IRDye® 800CW goat anti-mouse IgG (1:20,000, Licor) or IRDye® 800CW goat anti-rabbit IgG (1:20,000, Licor) for 1 hour. After TBS-T washes, membranes were rinsed in TBS and scanned on Odyssey® CLx Imaging System (Licor). The bands were quantified using Image Studio™ Software (Licor).
# Table 3 summarizes the BTK degradative activity of exemplary compounds of the present disclosure in a RAMOS cell line 6 hours after administration. The DC50 values (i.e., the concentration of test compound at which 50% of the target protein is degraded) were calculated. A designation of “A” corresponds to a DC50 value less than 10 nM. A designation of “B” corresponds to a DC50 value greater than or equal to 10 nM and less than 100 nM. A designation of “C” corresponds to a DC50 value greater than or equal to 100 nM.
# T1 sequence (Q06187 whole entry): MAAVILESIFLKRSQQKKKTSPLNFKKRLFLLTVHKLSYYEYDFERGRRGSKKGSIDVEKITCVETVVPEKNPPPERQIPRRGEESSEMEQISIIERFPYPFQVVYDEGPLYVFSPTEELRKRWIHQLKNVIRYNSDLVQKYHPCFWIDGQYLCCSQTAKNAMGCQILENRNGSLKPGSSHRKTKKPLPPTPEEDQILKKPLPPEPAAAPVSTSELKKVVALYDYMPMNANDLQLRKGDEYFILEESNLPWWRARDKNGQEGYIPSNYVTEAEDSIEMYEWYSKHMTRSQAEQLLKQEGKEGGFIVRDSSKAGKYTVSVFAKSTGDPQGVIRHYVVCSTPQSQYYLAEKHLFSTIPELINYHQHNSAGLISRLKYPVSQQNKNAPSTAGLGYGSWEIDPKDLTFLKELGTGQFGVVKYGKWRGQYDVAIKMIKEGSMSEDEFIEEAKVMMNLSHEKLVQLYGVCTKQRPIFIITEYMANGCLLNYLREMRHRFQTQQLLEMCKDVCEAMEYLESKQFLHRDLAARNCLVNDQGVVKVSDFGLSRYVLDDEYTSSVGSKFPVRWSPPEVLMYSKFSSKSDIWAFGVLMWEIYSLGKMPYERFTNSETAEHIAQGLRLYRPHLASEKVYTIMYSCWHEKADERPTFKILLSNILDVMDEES
row,Structure (SMILES),DC50
1,"O=C1CC[C@H](N2Cc3cc(N4CCN(CCCCCC(=O)N5CCC[C@@H](Nc6ncnc7[nH]cc(C(=O)c8ccc(Oc9ccccc9)cc8Cl)c67)C5)CC4)ccc3C2=O)C(=O)N1 [Compound 16, (S)-3-(5-(4-(6-((R)-3-((5-(2-chloro-4-phenoxybenzoyl)-7H-pyrrolo[2,3-d]pyrimidin-4-yl)amino)piperidin-1-yl)-6-oxohexyl)piperazin-1-yl)-1-oxoisoindolin-2-yl)piperidine-2,6-dione]",10 to 100 nM
2,"O=C1CCC(N2Cc3cc(N4CCN(CCCCCCC(=O)N5CCC[C@@H](Nc6ncnc7[nH]cc(C(=O)c8ccc(Oc9ccccc9)cc8Cl)c67)C5)CC4)ccc3C2=O)C(=O)N1 (stereo partly drawn) [Compound 17, 3-(5-(4-(7-((R)-3-((5-(2-chloro-4-phenoxybenzoyl)-7H-pyrrolo[2,3-d]pyrimidin-4-yl)amino)piperidin-1-yl)-7-oxoheptyl)piperazin-1-yl)-1-oxoisoindolin-2-yl)piperidine-2,6-dione]",10 to 100 nM
3,"O=C1CCC(N2C(=O)c3ccc(N4CCN(CCCCCCN5CCC(Nc6ncnc7[nH]cc(C(=O)c8ccc(Oc9ccccc9)cc8Cl)c67)CC5)CC4)cc3C2=O)C(=O)N1 (stereo not drawn) [Compound 18, 5-(4-(6-(4-((5-(2-chloro-4-phenoxybenzoyl)-7H-pyrrolo[2,3-d]pyrimidin-4-yl)amino)piperidin-1-yl)hexyl)piperazin-1-yl)-2-(2,6-dioxopiperidin-3-yl)isoindoline-1,3-dione]",≥ 100 nM
4,"O=C1CCC(N2C(=O)c3ccc(N4CCN(CCCC(=O)N5CCC[C@@H](Nc6ncnc7[nH]cc(C(=O)c8ccc(Oc9ccccc9)cc8Cl)c67)C5)CC4)cc3C2=O)C(=O)N1 (stereo partly drawn) [Compound 19, 5-(4-(4-((R)-3-((5-(2-chloro-4-phenoxybenzoyl)-7H-pyrrolo[2,3-d]pyrimidin-4-yl)amino)piperidin-1-yl)-4-oxobutyl)piperazin-1-yl)-2-(2,6-dioxopiperidin-3-yl)isoindoline-1,3-dione]",10 to 100 nM
5,"O=C1CC[C@H](N2Cc3cc(N4CCN(CCCC(=O)N5CCC[C@@H](Nc6ncnc7[nH]cc(C(=O)c8ccc(Oc9ccccc9)cc8Cl)c67)C5)CC4)ccc3C2=O)C(=O)N1 [Compound 20, (S)-3-(5-(4-(4-((R)-3-((5-(2-chloro-4-phenoxybenzoyl)-7H-pyrrolo[2,3-d]pyrimidin-4-yl)amino)piperidin-1-yl)-4-oxobutyl)piperazin-1-yl)-1-oxoisoindolin-2-yl)piperidine-2,6-dione]",10 to 100 nM
6,"O=C1CC[C@H](N2Cc3cc(N4CCN(CCCCCCC(=O)N5CCC(Nc6ncnc7[nH]cc(C(=O)c8ccc(Oc9ccccc9)cc8Cl)c67)CC5)CC4)ccc3C2=O)C(=O)N1 [Compound 21, (S)-3-(5-(4-(7-(4-((5-(2-chloro-4-phenoxybenzoyl)-7H-pyrrolo[2,3-d]pyrimidin-4-yl)amino)piperidin-1-yl)-7-oxoheptyl)piperazin-1-yl)-1-oxoisoindolin-2-yl)piperidine-2,6-dione]",10 to 100 nM
7,"O=C1CC[C@H](N2C(=O)c3ccc(N4CCN(CCCCCCC(=O)N5CCC(Nc6ncnc7[nH]cc(C(=O)c8ccc(Oc9ccccc9)cc8Cl)c67)CC5)CC4)cc3C2=O)C(=O)N1 [Compound 22, 5-(4-(7-(4-((5-(2-chloro-4-phenoxybenzoyl)-7H-pyrrolo[2,3-d]pyrimidin-4-yl)amino)piperidin-1-yl)-7-oxoheptyl)piperazin-1-yl)-2-(2,6-dioxopiperidin-3-yl)isoindoline-1,3-dione]",10 to 100 nM
8,"O=C1CCC(N2C(=O)c3ccc(N4CCN(CCCC(=O)N5CCC(Nc6ncnc7[nH]cc(C(=O)c8ccc(Oc9ccccc9)cc8Cl)c67)CC5)CC4)cc3C2=O)C(=O)N1 (stereo not drawn) [Compound 23, 5-(4-(4-(4-((5-(2-chloro-4-phenoxybenzoyl)-7H-pyrrolo[2,3-d]pyrimidin-4-yl)amino)piperidin-1-yl)-4-oxobutyl)piperazin-1-yl)-2-(2,6-dioxopiperidin-3-yl)isoindoline-1,3-dione]",10 to 100 nM
9,"O=C1CC[C@H](N2Cc3cc(N4CCN(CCCC(=O)N5CCC(Nc6ncnc7[nH]cc(C(=O)c8ccc(Oc9ccccc9)cc8Cl)c67)CC5)CC4)ccc3C2=O)C(=O)N1 [Compound 24, (S)-3-(5-(4-(4-(4-((5-(2-chloro-4-phenoxybenzoyl)-7H-pyrrolo[2,3-d]pyrimidin-4-yl)amino)piperidin-1-yl)-4-oxobutyl)piperazin-1-yl)-1-oxoisoindolin-2-yl)piperidine-2,6-dione]",10 to 100 nM
10,"O=C1CC[C@H](N2Cc3cc(N4CCN(CCCCC(=O)N5CCC(Nc6ncnc7[nH]cc(C(=O)c8ccc(Oc9ccccc9)cc8Cl)c67)CC5)CC4)ccc3C2=O)C(=O)N1 [Compound 25, (S)-3-(5-(4-(5-(4-((5-(2-chloro-4-phenoxybenzoyl)-7H-pyrrolo[2,3-d]pyrimidin-4-yl)amino)piperidin-1-yl)-5-oxopentyl)piperazin-1-yl)-1-oxoisoindolin-2-yl)piperidine-2,6-dione]",< 10 nM
11,"O=C1CCC(N2C(=O)c3ccc(N4CCN(CCCN5CCC(Nc6ncnc7[nH]cc(C(=O)c8ccc(Oc9ccccc9)cc8Cl)c67)CC5)CC4)cc3C2=O)C(=O)N1 (stereo not drawn) [Compound 26, 5-(4-(3-(4-((5-(2-chloro-4-phenoxybenzoyl)-7H-pyrrolo[2,3-d]pyrimidin-4-yl)amino)piperidin-1-yl)propyl)piperazin-1-yl)-2-(2,6-dioxopiperidin-3-yl)isoindoline-1,3-dione]",10 to 100 nM
12,"O=C1CCC(N2C(=O)c3ccc(N4CCN(CCCCN5CCC(Nc6ncnc7[nH]cc(C(=O)c8ccc(Oc9ccccc9)cc8Cl)c67)CC5)CC4)cc3C2=O)C(=O)N1 (stereo not drawn) [Compound 27, 5-(4-(4-(4-((5-(2-chloro-4-phenoxybenzoyl)-7H-pyrrolo[2,3-d]pyrimidin-4-yl)amino)piperidin-1-yl)butyl)piperazin-1-yl)-2-(2,6-dioxopiperidin-3-yl)isoindoline-1,3-dione]",10 to 100 nM
13,"O=C1CCC(N2C(=O)c3ccc(N4CCN(CCCCCC(=O)N5CCC(Nc6ncnc7[nH]cc(C(=O)c8ccc(Oc9ccccc9)cc8Cl)c67)CC5)CC4)cc3C2=O)C(=O)N1 (stereo not drawn) [Compound 28, 5-(4-(6-(4-((5-(2-chloro-4-phenoxybenzoyl)-7H-pyrrolo[2,3-d]pyrimidin-4-yl)amino)piperidin-1-yl)-6-oxohexyl)piperazin-1-yl)-2-(2,6-dioxopiperidin-3-yl)isoindoline-1,3-dione]",10 to 100 nM
14,"O=C1CCC(N2C(=O)c3ccc(N4CCN(CCCCCCCN5CCC[C@@H](Nc6ncnc7[nH]cc(C(=O)c8ccc(Oc9ccccc9)cc8Cl)c67)C5)CC4)cc3C2=O)C(=O)N1 (stereo partly drawn) [Compound 29, 5-(4-(7-((R)-3-((5-(2-chloro-4-phenoxybenzoyl)-7H-pyrrolo[2,3-d]pyrimidin-4-yl)amino)piperidin-1-yl)heptyl)piperazin-1-yl)-2-(2,6-dioxopiperidin-3-yl)isoindoline-1,3-dione]",10 to 100 nM
15,"O=C1CCC(N2C(=O)c3ccc(N4CCN(CCCCCN5CCC[C@@H](Nc6ncnc7[nH]cc(C(=O)c8ccc(Oc9ccccc9)cc8Cl)c67)C5)CC4)cc3C2=O)C(=O)N1 (stereo partly drawn) [Compound 30, 5-(4-(5-((R)-3-((5-(2-chloro-4-phenoxybenzoyl)-7H-pyrrolo[2,3-d]pyrimidin-4-yl)amino)piperidin-1-yl)pentyl)piperazin-1-yl)-2-(2,6-dioxopiperidin-3-yl)isoindoline-1,3-dione]",≥ 100 nM
